Reference: patent US20040082815A1, “Benzophenones, the production thereof and their use for controlling plant pathogenic fungi” (priority 2001, published 2004)

Tested on: Erysiphe graminis forma specialis tritici
Test: Activity against powdery mildew of wheat, protective spray test on wheat seedlings cv. Kanzler
Format: in vivo, Erysiphe graminis forma specialis tritici (on wheat)
Details: sprayed to runoff 24 h before inoculation, rated visually after 7 days, untreated plants 90% disease
Protocol: The active ingredients, separately or jointly, were prepared as a 10% strength emulsion in a mixture of 70% by weight of cyclohexanone, 20% by weight of Nekanil® LN (Lutensol® AP6, wetter with emulsifying and dispersing action based on ethoxylated alkylphenols) and 10% by weight of Wettol® EM (nonionic emulsifier based on ethoxylated castor oil) and diluted with water to give the desired concentration.
Use Example 1—Activity Against Powdery Mildew of Wheat (Erysiphe graminis f. sp. […] f. sp. tritici)
Leaves of wheat seedlings cv. “Kanzler” which have grown in pots were sprayed to runoff point with aqueous preparation of active ingredient made with a stock solution composed of 10% of active ingredient, 63% of cyclohexanone and 27% of emulsifier, and, 24 hours after the spray coating had dried on, dusted with spores of powdery mildew of wheat (Erysiphe graminis forma specialis tritici). The test plants were subsequently placed in a greenhouse at temperatures between 20 and 24° C. and a relative atmospheric humidity of 60 to 90%. After 7 days, the extent of the mildew development was determined visually in % disease of the total leaf area.

For `COc1cc(C)c(C(=O)c2c(Cl)ccc(Cl)c2C)c(OC)c1OC` [I.1-02, 2,5-Dichloro-2′,6-dimethyl-4′,5′,6′-trimethoxybenzophenone], the “extent of mildew development, % disease of the total leaf area” value (“extent … % disease of the total leaf area” for short) (4 ppm) was “no disease” and the “extent … % disease of the total leaf area” value (16 ppm) was “no disease”.

For `COc1cc(C)c(C(=O)c2c(F)ccc(F)c2C)c(OC)c1OC` [I.5-02, 2,5-Difluoro-2′,6-dimethyl-4′,5′,6′-trimethoxybenzophenone], the “extent … % disease of the total leaf area” value (4 ppm) was 1% and the “extent … % disease of the total leaf area” value (16 ppm) was “no disease”.
